{"source": "patent US20210402002A1", "about": "“CONJUGATE” (priority 2018, published 2021)", "key": {"egg embryos": {"tested_on": "egg embryos", "assay": "Embryo toxicity in the CAM in vivo trial (% alive egg embryos)", "set-up": "species or system chicken", "conditions": "alive egg embryos at end of study; same dosing; PBS control 83", "protocol": "(§1) The study was performed by Inovotion SAS (La Tronche, France) as follows: Fertilized chicken eggs were incubated at 37.5° C. with 50% relative humidity for 9 days (E9), when the chorioallantoic membrane (CAM) was dropped down by drilling a small hole through the eggshell into the air sac, and a 1 cm^2 window was cut in the eggshell above the CAM. The NCI-N87 cell line was cultivated in RPMI-1640 medium supplemented with 10% FBS and 1% penicillin/streptomycin. On day E9, cells were detached by trypsin, washed with complete medium and suspended in graft medium. An inoculum of 2 million cells was added onto the CAM of each egg. […] On day 18 (E18) the upper portion of the CAM was removed, washed in PBS and then directly transferred in PFA (fixation for 48 h). The tumors were then carefully cut away from normal CAM tissue and weighed. Eggs were checked at each treatment time, or at least every two days, for viability during the study. At the end of the study, the number of dead embryos was counted and combined with the observation of eventual visible macroscopic abnormalities (observation done during the sample collection) to evaluate the toxicity."}, "[1]": {"tested_on": "NCI-N87 cancer cell line tumors", "assay": "In vivo efficacy trial, tumors on chicken egg chorioallantoic membrane (CAM)", "conditions": "day E18, trastuzumab and tunicamycin-ADC single dose 2.5 mg/kg, pembrolizumab […] five doses, PBS control 32.2", "protocol": "as §1"}, "SKBR-3 cells [2]": {"tested_on": "SKBR-3 cells"}, "HER2": {"tested_on": "HER2", "assay": "Inhibition of HER2 glycoprotein N-glycosylation in SKBR-3 cells (SDS-PAGE, anti-HER2 immunoblot)", "format": "cell-based, human", "source_text": "After six days' culture, the cells were lysed and samples from each treatment were subjected to SDS-PAGE and immunoblotting with anti-HER2 antibody (anti-human ErbB2/Her2 goat polyclonal antibody AF1129, R&D Systems) with standard procedures."}, "SKBR-3 cells [3]": {"tested_on": "SKBR-3 cells", "assay": "ADCC assay (LDH cytotoxicity) with SKBR-3 cells pre-incubated with glycosylation inhibitors", "format": "cell-based", "protocol": "(§2) SKBR-3 and SKOV-3 cells were cultured on 96-well plates in recommended conditions and incubated with or without glycosylation inhibitors or ADCs for four days as described above. […] After 3.5 h at +37° C., cytotoxicity was assessed with commercial lactate dehydrogenase assay kit (Cytotoxicity detection kit (LDH), Thermo Fischer Scientific) and the cytotoxicities were calculated as proportion of killed cells (%, average of three parallel wells)."}, "SKOV-3 cells": {"tested_on": "SKOV-3 cells", "assay": "ADCC assay (LDH cytotoxicity) with SKOV-3 cells pre-incubated with glycosylation inhibitors", "format": "cell-based", "protocol": "as §2"}, "SKBR-3 cells [4]": {"tested_on": "SKBR-3 cells", "assay": "N-glycan profiling by MALDI-TOF MS, high-mannose N-glycans (mannosidase I inhibition)", "format": "cell-based", "conditions": "10 μM, four days, control cells 7.07"}, "HSC-2 cancer cells": {"tested_on": "HSC-2 cancer cells", "assay": "FACS staining of HSC-2 cells with lectins, Galectin-1 and Siglec-7 after incubation with glycosylation inhibitors", "format": "cell-based", "conditions": "2 days, compared to untreated cells; for sialylation/Siglec-7 ligand glycosylation, SNA-I and Siglec-7 staining: 200 μM; for Galectin-1 ligand glycosylation, lectin and Galectin-1 staining: 100 μM", "protocol": "In another experiment, HSC-2 cancer cells were cultured for two days, after which glycosylation inhibitors were added to the cell culture medium: 200 μM β-3-Fax-Neu5Ac and 100 μM β-4-F-GlcNAc. The cells were then cultured for 2 days with inhibitors. In parallel, untreated cells were cultured in normal cell culture medium. For flow cytometry analysis cells were detached with trypsin, washed, and stained with FITC-conjugated lectins, AlexaFluor488-conjugated Galectin-1 and recombinant human Siglec-7 (R&D Systems) at +4° C. for 30-45 minutes (the Siglec-samples were further stained with AlexaFluor488-conjugated anti-human IgG antibody at +4° C. for 30-45 minutes). FACS was performed as above."}, "[5]": {"tested_on": "SKOV-3 ovarian carcinoma cells", "assay": "FACS staining of SKOV-3 cells with labeled lectins and Galectins after incubation with glycosylation inhibitors", "format": "cell-based", "conditions": "compared to untreated cells; for cell surface sialylation, SNA-I-FITC lectin staining: 100 μM, 3 days; for Galectin ligand expression, LEA-FITC, Galectin-1 and Galectin-3 staining: 50 μM, 4 days", "protocol": "SKOV-3 ovarian carcinoma cells (ATCC, Manassas, Va., USA) were cultured according to ATCC's instructions and incubated in the presence of either 50 μM 2-acetamido-2,4-dideoxy-4-fluoro-1,3,6-tri-O-acetyl-D-glucose for 4 days (β-4-F-GlcNAc; Sussex Research, Ottawa, Canada), 100 μM 5-acetamido-3,5-dideoxy-3-fluoro-2,4,7,8,9-penta-O-acetyl-D-erythro-L-manno-2-nonulosonic acid methyl ester (β-3-Fax-Neu5Ac; Tocris Bioscience, Abingdon, United Kingdom) for 3 days, or DMSO carrier control in parallel. After the incubation, cells were stained with fluorescein-labeled lectins SNA-I-FITC for α2,6-sialylation, LEA-FITC for poly-N-acetyllactos-amines (both from EY Labs, San Mateo, Calif., USA), Alexa Fluor 488-conjugated human recombinant Galectin-1, and Alexa Fluor 488-conjugated human recombinant Galectin-3 (both from Abcam, Cambridge, United Kingdom). Cells were washed and stored on ice in the dark until analysed by FACSAriaII flow cytometer."}, "[6]": {"conditions": "second assay, SKBR-3, 50 μM inhibitor and trastuzumab only, no effector cells"}, "[7]": {"conditions": "second assay, SKBR-3, 50 μM inhibitor, trastuzumab and effector cells applied"}, "[8]": {"conditions": "SKOV-3, 50 μM inhibitor and trastuzumab only, no effector cells"}, "[9]": {"conditions": "SKOV-3, 50 μM inhibitor, trastuzumab and effector cells applied"}}, "data": [{"molecule": "pembrolizumab: pembrolizumab (Keytruda, Merck)", "values": [{"measurement": "% alive", "setting": "egg embryos", "value": 58, "unit": "%"}, {"measurement": "Mean tumor size", "setting": "[1]", "value": 34.9, "unit": "mg"}]}, {"molecule": "tunicamycin", "values": [{"measurement": "IC50", "setting": "SKBR-3 cells [2]; read-out: IC50 (cellular viability), six days", "value": 300, "unit": "nM"}, {"measurement": "EC50", "setting": "HER2; six days' incubation, immunoblot, read-out: EC50 (concentration with 50% efficacy) of decrease of relative MW of HER2, defective N-glycosylation", "value": 70, "unit": "nM"}, {"measurement": "decrease of relative MW of HER2 upon inhibition of N-glycosylation", "setting": "HER2; six days, SDS-PAGE", "value": "about 15 kDa"}, {"measurement": "cytotoxicity (proportion of killed cells)", "setting": "SKBR-3 cells [3]; first assay, SKBR-3, 1 μM inhibitor and trastuzumab only, no effector cells", "value": "no cytotoxicity was detected"}, {"measurement": "cytotoxicity (proportion of killed cells)", "setting": "SKBR-3 cells [3]; first assay, SKBR-3, 1 μM inhibitor, trastuzumab and effector cells applied", "value": 40.4, "unit": "%"}, {"measurement": "cytotoxicity (proportion of killed cells)", "setting": "SKBR-3 cells [3]; second assay, SKBR-3, 0.5 μM inhibitor and trastuzumab only, no effector cells", "value": "about 4%"}, {"measurement": "cytotoxicity (proportion of killed cells)", "setting": "SKBR-3 cells [3]; second assay, SKBR-3, 0.5 μM inhibitor, trastuzumab and effector cells applied", "value": "about 46%"}, {"measurement": "cytotoxicity (proportion of killed cells)", "setting": "SKOV-3 cells; SKOV-3, 0.5 μM inhibitor and trastuzumab only, no effector cells", "value": "about 2%"}, {"measurement": "cytotoxicity (proportion of killed cells)", "setting": "SKOV-3 cells; SKOV-3, 0.5 μM inhibitor, trastuzumab and effector cells applied", "value": "about 5%"}]}, {"molecule": "O=C1N[C@@H]2[C@@H](O)[C@@H](O)[C@H](O)[C@@H](CO)N2C1=O", "note": "[kifunensine]", "values": [{"measurement": "average number of mannose residues (Man) in the Man5-9GlcNAc2 glycan signal series", "setting": "SKBR-3 cells [4]", "value": 8.56}, {"measurement": "cytotoxicity (proportion of killed cells)", "setting": "SKBR-3 cells [3]; first assay, SKBR-3, 10 μM inhibitor and trastuzumab only, no effector cells", "value": "no cytotoxicity was detected"}, {"measurement": "cytotoxicity (proportion of killed cells)", "setting": "SKBR-3 cells [3]; first assay, SKBR-3, 10 μM inhibitor, trastuzumab and effector cells applied", "value": 18.5, "unit": "%"}, {"measurement": "cytotoxicity (proportion of killed cells)", "setting": "SKBR-3 cells [3]; [6]", "value": "2-3%"}, {"measurement": "cytotoxicity (proportion of killed cells)", "setting": "SKBR-3 cells [3]; [7]", "value": "about 19%"}, {"measurement": "cytotoxicity (proportion of killed cells)", "setting": "SKOV-3 cells; [8]", "value": "no cytotoxicity was observed"}, {"measurement": "cytotoxicity (proportion of killed cells)", "setting": "SKOV-3 cells; [9]", "value": "about 2%"}]}, {"molecule": "COC(=O)C1(OC(C)=O)O[C@@H]([C@H](OC(C)=O)[C@@H](COC(C)=O)OC(C)=O)[C@H](NC(C)=O)[C@@H](OC(C)=O)[C@H]1F", "note": "(stereo partly drawn) [P-3Fax-Neu5Ac, 5-acetamido-3,5-dideoxy-3-fluoro-2,4,7,8,9-penta-O-acetyl-D-erythro-L-manno-2-nonulosonic acid methyl ester]", "values": [{"measurement": "sialylation/Siglec-7 ligand glycosylation, SNA-I and Siglec-7 staining", "setting": "HSC-2 cancer cells", "value": "effective inhibition"}, {"measurement": "sialylation/Siglec-7 ligand glycosylation, SNA-I and Siglec-7 staining", "setting": "HSC-2 cancer cells; listed as β-3-Fax-Neu5Ac", "value": "clearly decreased"}, {"measurement": "absorbance reading in the cytotoxicity assay", "setting": "SKBR-3 cells [3]; third assay, SKBR-3, 50 μM inhibitor, trastuzumab and effector cells applied", "value": "about 0.7"}, {"measurement": "cell surface sialylation, SNA-I-FITC lectin staining", "setting": "[5]", "value": "effective inhibition"}, {"measurement": "cell surface sialylation, SNA-I-FITC lectin staining", "setting": "[5]; listed as β-3-Fax-Neu5Ac", "value": "clearly decreased"}]}, {"molecule": "omalizumab-MC-VC-PAB-DMAE-tunicamycin DAR=8 ADC: DAR=8 conjugate of MC-VC-PAB-DMAE-tunicamycin V prepared from omalizumab (negative control antibody)", "values": [{"measurement": "cytotoxicity to the cells in the viability assay", "setting": "SKBR-3 cells [2]; five or eight days, up to 1 μM", "value": "no apparent toxicity"}]}, {"molecule": "CC(=O)N[C@H]1C(OC(C)=O)O[C@H](COC(C)=O)[C@@H](F)[C@@H]1OC(C)=O", "note": "(stereo partly drawn) [P-4F-GlcNAc, 2-acetamido-2,4-dideoxy-4-fluoro-1,3,6-tri-O-acetyl-D-glucose]", "values": [{"measurement": "Galectin-1 ligand glycosylation, lectin and Galectin-1 staining", "setting": "HSC-2 cancer cells", "value": "effective inhibition"}, {"measurement": "Galectin-1 ligand glycosylation, lectin and Galectin-1 staining", "setting": "HSC-2 cancer cells; listed as β-4-F-GlcNAc", "value": "clearly decreased"}, {"measurement": "cytotoxicity (proportion of killed cells)", "setting": "SKBR-3 cells [3]; [6]", "value": "1-2%"}, {"measurement": "cytotoxicity (proportion of killed cells)", "setting": "SKBR-3 cells [3]; [7]", "value": "about 16%"}, {"measurement": "cytotoxicity (proportion of killed cells)", "setting": "SKOV-3 cells; [8]", "value": "no cytotoxicity was observed"}, {"measurement": "cytotoxicity (proportion of killed cells)", "setting": "SKOV-3 cells; [9]", "value": "about 5%"}, {"measurement": "Galectin ligand expression, LEA-FITC, Galectin-1 and Galectin-3 staining", "setting": "[5]", "value": "effective inhibition"}, {"measurement": "Galectin ligand expression, LEA-FITC, Galectin-1 and Galectin-3 staining", "setting": "[5]; listed as β-4-F-GlcNAc", "value": "clearly decreased"}]}]}
